From patent publication US20140057915A1, “KINASE INHIBITORS” (TOPIVERT PHARMA LIMITED, priority 2012, published 2014)
pEC50, pIC50: −log10 of the molar value.

Key:
[1] = test system: ICAM-1 expression, BEAS2B cells; experiment: Poly I:C-induced ICAM-1 expression in BEAS2B cells; format: cell-based; conditions: Homo sapiens, BEAS-2B; read-out: Poly IC induced ICAM1 in BEAS2B, IC50
How it was run: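 BEAS2B human bronchial epithelial cells pre-incubated 2 h with compound, then transfected with poly I:C (1 μg/mL) plus Oligofectamine. After 18 h, cell-surface ICAM-1 read by cell-based ELISA (A450–655), normalised to Crystal Violet cell number (A595); inhibition calculated against vehicle control at each concentration.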

cSrc = cSrc (Homo sapiens, UniProt P12931); experiment: c-Src enzyme inhibition (FRET); format: biochemical; conditions: Table 4a1
Chain of cSrc (P12931 whole entry): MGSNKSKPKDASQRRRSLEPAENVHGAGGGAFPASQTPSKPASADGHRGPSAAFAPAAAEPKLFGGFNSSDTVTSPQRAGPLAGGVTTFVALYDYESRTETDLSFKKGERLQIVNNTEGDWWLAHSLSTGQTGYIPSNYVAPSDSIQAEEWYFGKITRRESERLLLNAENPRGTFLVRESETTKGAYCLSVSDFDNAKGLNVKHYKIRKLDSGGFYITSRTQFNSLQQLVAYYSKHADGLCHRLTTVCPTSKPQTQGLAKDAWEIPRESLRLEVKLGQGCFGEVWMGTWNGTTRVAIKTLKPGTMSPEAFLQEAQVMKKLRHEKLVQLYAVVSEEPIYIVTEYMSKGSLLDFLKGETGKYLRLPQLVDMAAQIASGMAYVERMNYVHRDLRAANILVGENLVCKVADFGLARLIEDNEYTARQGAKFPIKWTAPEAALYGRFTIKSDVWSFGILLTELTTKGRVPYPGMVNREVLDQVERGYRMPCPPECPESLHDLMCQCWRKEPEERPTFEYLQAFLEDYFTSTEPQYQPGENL
How it was run: (§1)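 2 hr RT enzyme + cpd (added solns 4/0.4/0.04/0.004 μg/mL); + FRET peptide (8 μM soln) + ATP soln (c-Src 800 μM, Syk 60 μM), 1 hr; protease development 1 hr; read donor/acceptor emission ratio.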

Syk = Syk (Homo sapiens, UniProt P43405); experiment: Syk enzyme inhibition (FRET); format: biochemical; conditions: Table 4a1
How it was run: as §1

GSK3α = GSK3α (Homo sapiens, UniProt P49840); experiment: GSK 3α enzyme inhibition (FRET), Method 1; format: biochemical; conditions: Table 4a1
Chain of GSK3α (P49840 whole entry): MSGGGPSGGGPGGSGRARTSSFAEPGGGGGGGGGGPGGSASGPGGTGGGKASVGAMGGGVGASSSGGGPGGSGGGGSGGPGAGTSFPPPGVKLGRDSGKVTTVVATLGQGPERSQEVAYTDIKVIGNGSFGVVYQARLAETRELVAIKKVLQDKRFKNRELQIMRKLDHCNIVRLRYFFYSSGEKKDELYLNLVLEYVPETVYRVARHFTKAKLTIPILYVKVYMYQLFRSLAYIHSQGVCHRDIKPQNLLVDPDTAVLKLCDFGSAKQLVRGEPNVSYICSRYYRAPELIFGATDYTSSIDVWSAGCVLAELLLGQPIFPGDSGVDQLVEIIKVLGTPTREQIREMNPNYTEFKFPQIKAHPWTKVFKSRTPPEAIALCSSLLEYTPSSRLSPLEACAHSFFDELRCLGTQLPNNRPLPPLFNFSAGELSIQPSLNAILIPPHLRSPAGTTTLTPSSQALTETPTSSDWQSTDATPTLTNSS
How it was run: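 Steps: preincubate GSK3α with compound 2 hr at room temperature; start reaction with peptide and ATP for 1 hr; develop with site-specific protease for 1 hr; measure fluorescence and take the coumarin/fluorescein ratio as the phosphorylation level.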

d-U937 cells = experiment: Cell viability: MTT assay; format: cell-based, human; conditions: 1 μg/mL
How it was run: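 Differentiated U937 cells exposed to compound at 1 or 10 μg/mL, either 4 h in 5% FCS or 24 h in 10% FCS RPMI1640. MTT then added for 1 h, formazan dissolved in DMSO and read at 550 nm. Viability loss given as % versus 0.5% DMSO vehicle; apparent gains appear negative.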

[2] = test system: IL-8 release, d-U937 cells; experiment: LPS-induced IL-8 release in d-U937 cells; format: cell-based; conditions: Homo sapiens, dU937; Table 4c1; read-out: LPS Induced Release of Cytokine in d-U937 Cells, IL-8 IC50
How it was run: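 IL-8 release after a 4 hr challenge with LPS (0.1 μg/mL, E. coli 0111:B4) following a 2 hr compound pretreatment. Cells were human U937 monocytes differentiated to macrophage-type with PMA 100 ng/mL for 48–72 hr. Relative 50% effective concentration derived from concentration–response data.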

[3] = test system: TNFα release, d-U937 cells; experiment: LPS-induced TNFα release in d-U937 cells; format: cell-based; conditions: Homo sapiens, dU937; relative to 10 μg/mL BIRB796; Table 4c1; read-out: LPS Induced Release of Cytokine in d-U937 Cells, TNFα REC50
How it was run: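 U937 cells differentiated with PMA (100 ng/mL, 48–72 hr), pre-treated with compound for 2 hr, then stimulated with E. coli LPS (0.1 μg/mL) for 4 hr. Supernatant cytokine measured by sandwich ELISA; inhibition versus vehicle control, REC50 from concentration-response curve.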

pIC50 (cSrc)	pIC50 (Syk)	pIC50 (GSK3α)	pIC50 [2]	pEC50 [3]	Compound	pIC50 [1]	Cell viability at time point in d-U937 cells, 4 h (d-U937 cells)	Cell viability at time point in d-U937 cells, 24 h (d-U937 cells)
> 9.00	7.27	< 4.85	7.49	8.66	COc1ccc(C(=O)NCCN(C)C)cc1Nc1nccc(Oc2ccc(NC(=O)Nc3cc(C(C)C)nn3-c3ccc(C)cc3)c3ccccc23)n1 [Example 28, N-(2-(dimethylamino)ethyl)-3-((4-((4-(3-(3-isopropyl-1-(p-tolyl)-1H-pyrazol-5-yl)ureido)naphthalen-1-yl)oxy)pyrimidin-2-yl)amino)-4-methoxybenzamide]	6.85	−ve (−ve and +ve indicate that the value is below and above respectively, the no significant effect threshold, defined as 30% inhibition at 1 μg/mL at the time point indicated)	−ve (−ve and +ve indicate that the value is below and above respectively, the no significant effect threshold, defined as 30% inhibition at 1 μg/mL at the time point indicated)
8.30	7.85	6.45	8.72	8.89	COc1ccc(-n2nc(C(C)(C)C)cc2NC(=O)Nc2ccc(Oc3ccnc(Nc4cccc(C(=O)NCCN5CCOCC5)c4)n3)c3ccccc23)cc1 [Example 21, 3-((4-((4-(3-(3-(tert-butyl)-1-(4-methoxyphenyl)-1H-pyrazol-5-yl)ureido)naphthalen-1-yl)oxy)pyrimidin-2-yl)amino)-N-(2-morpholinoethyl)benzamide]	9.10	−ve (−ve and +ve indicate that the value is below and above respectively, the no significant effect threshold, defined as 30% inhibition at 1 μg/mL at the time point indicated)	−ve (−ve and +ve indicate that the value is below and above respectively, the no significant effect threshold, defined as 30% inhibition at 1 μg/mL at the time point indicated)
8.40	7.80	5.50	8.80	9.40	COc1ccc(-n2nc(C(C)C)cc2NC(=O)Nc2ccc(Oc3ccnc(Nc4cc(OC)cc(C(=O)NCCN5CCOCC5)c4)c3)c3ccccc23)cc1 [Example 15, 3-((4-((4-(3-(3-isopropyl-1-(4-methoxyphenyl)-1H-pyrazol-5-yl)ureido)naphthalen-1-yl)oxy)pyridin-2-yl)amino)-5-methoxy-N-(2-morpholinoethyl)benzamide]	7.58	−ve (−ve and +ve indicate that the value is below and above respectively, the no significant effect threshold, defined as 30% inhibition at 1 μg/mL at the time point indicated)	−ve (−ve and +ve indicate that the value is below and above respectively, the no significant effect threshold, defined as 30% inhibition at 1 μg/mL at the time point indicated)
> 9.00	6.53	6.03	8.89	8.35	Cc1ccc(-n2nc(C3(C)COC3)cc2NC(=O)Nc2ccc(Oc3ccnc(Nc4cccc(C(=O)NCCN5CCOCC5)c4)n3)c3ccccc23)cc1 [Example 22, 3-((4-((4-(3-(3-(3-methyloxetan-3-yl)-1-(p-tolyl)-1H-pyrazol-5-yl)ureido)naphthalen-1-yl)oxy)pyrimidin-2-yl)amino)-N-(2-morpholinoethyl)benzamide]	8.39	−ve (−ve and +ve indicate that the value is below and above respectively, the no significant effect threshold, defined as 30% inhibition at 1 μg/mL at the time point indicated)	−ve (−ve and +ve indicate that the value is below and above respectively, the no significant effect threshold, defined as 30% inhibition at 1 μg/mL at the time point indicated)
8.05	7.27	< 4.89	7.22	7.69	COc1ccc(-n2nc(C(C)C)cc2NC(=O)Nc2ccc(Oc3ccnc(Nc4ccc(C(=O)NCCN5CCOCC5)cc4OC)n3)c3ccccc23)cc1 [Example 38, 4-((4-((4-(3-(3-isopropyl-1-(4-methoxyphenyl)-1H-pyrazol-5-yl)ureido)naphthalen-1-yl)oxy)pyrimidin-2-yl)amino)-3-methoxy-N-(2-morpholinoethyl)benzamide]	7.45	−ve (−ve and +ve indicate that the value is below and above respectively, the no significant effect threshold, defined as 30% inhibition at 1 μg/mL at the time point indicated)	−ve (−ve and +ve indicate that the value is below and above respectively, the no significant effect threshold, defined as 30% inhibition at 1 μg/mL at the time point indicated)
8.40	6.69	< 4.89	8.68	8.92	COc1cc(Nc2cc(Oc3ccc(NC(=O)Nc4cc(C(C)(C)C)nn4-c4ccc(C)cc4)c4ccccc34)ncn2)cc(C(=O)NCCN2CCOCC2)c1 [Example 72]	8.59	−ve (−ve and +ve indicate that the value is below and above respectively, the no significant effect threshold, defined as 30% inhibition at 1 μg/mL at the time point indicated)	−ve (−ve and +ve indicate that the value is below and above respectively, the no significant effect threshold, defined as 30% inhibition at 1 μg/mL at the time point indicated)
8.30	7.11	< 4.89	7.69	8.46	COc1cc(Nc2nccc(Oc3ccc(NC(=O)Nc4cc(C(F)(F)F)nn4-c4ccc(C)cc4)c4ccccc34)n2)cc(C(=O)NCCN2CCOCC2)c1 [Example 48, 3-methoxy-N-(2-morpholinoethyl)-5-((4-((4-(3-(1-(p-tolyl)-3-(trifluoromethyl)-1H-pyrazol-5-yl)ureido)naphthalen-1-yl)oxy)pyrimidin-2-yl)amino)benzamide]	7.49	−ve (−ve and +ve indicate that the value is below and above respectively, the no significant effect threshold, defined as 30% inhibition at 1 μg/mL at the time point indicated)	−ve (−ve and +ve indicate that the value is below and above respectively, the no significant effect threshold, defined as 30% inhibition at 1 μg/mL at the time point indicated)
8.70	8.40	< 4.89	8.74	8.89	COc1cc(Nc2nccc(Oc3ccc(NC(=O)Nc4cc(C(C)C)nn4-c4ccc(OC)nc4)c4ccccc34)n2)cc(C(=O)NCCN2CCOCC2)c1 [Example 10, 3-((4-((4-(3-(3-Isopropyl-1-(6-methoxypyridin-3-yl)-1H-pyrazol-5-yl)ureido)naphthalen-1-yl)oxy)pyrimidin-2-yl)amino)-5-methoxy-N-(2-morpholinoethyl)benzamide]	8.14	−ve (−ve and +ve indicate that the value is below and above respectively, the no significant effect threshold, defined as 30% inhibition at 1 μg/mL at the time point indicated)	−ve (−ve and +ve indicate that the value is below and above respectively, the no significant effect threshold, defined as 30% inhibition at 1 μg/mL at the time point indicated)
8.52	8.22	6.61	8.82	9.52	COc1cc(Nc2nccc(Oc3ccc(NC(=O)Nc4cc(C(C)(C)C)nn4-c4ccc(C)cc4)c4ccccc34)n2)cc(C(=O)NCCN2CCOCC2)c1 [Example 52, 3-((4-((4-(3-(3-(tert-butyl)-1-(p-tolyl)-1H-pyrazol-5-yl)ureido)naphthalen-1-yl)oxy)pyrimidin-2-yl)amino)-5-methoxy-N-(2-morpholinoethyl)benzamide]	8.30	−ve (−ve and +ve indicate that the value is below and above respectively, the no significant effect threshold, defined as 30% inhibition at 1 μg/mL at the time point indicated)	−ve (−ve and +ve indicate that the value is below and above respectively, the no significant effect threshold, defined as 30% inhibition at 1 μg/mL at the time point indicated)
